Experimental findings from ChEMBL document CHEMBL3991601, “The target landscape of clinical kinase drugs” (Science, 2017) are described below.

SMILES strings stand for the structures. Calls of active or inactive are those of the source. Rule as the data show it, for most assays here: actives have a measured Kd and inactives only a lower limit. A value given as a limit tells only on which side of the number the result lay.

The target in assay [1] is T1, Serine/threonine-protein kinase D3 (Homo sapiens, UniProt O94806).
T1 sequence (O94806 whole entry): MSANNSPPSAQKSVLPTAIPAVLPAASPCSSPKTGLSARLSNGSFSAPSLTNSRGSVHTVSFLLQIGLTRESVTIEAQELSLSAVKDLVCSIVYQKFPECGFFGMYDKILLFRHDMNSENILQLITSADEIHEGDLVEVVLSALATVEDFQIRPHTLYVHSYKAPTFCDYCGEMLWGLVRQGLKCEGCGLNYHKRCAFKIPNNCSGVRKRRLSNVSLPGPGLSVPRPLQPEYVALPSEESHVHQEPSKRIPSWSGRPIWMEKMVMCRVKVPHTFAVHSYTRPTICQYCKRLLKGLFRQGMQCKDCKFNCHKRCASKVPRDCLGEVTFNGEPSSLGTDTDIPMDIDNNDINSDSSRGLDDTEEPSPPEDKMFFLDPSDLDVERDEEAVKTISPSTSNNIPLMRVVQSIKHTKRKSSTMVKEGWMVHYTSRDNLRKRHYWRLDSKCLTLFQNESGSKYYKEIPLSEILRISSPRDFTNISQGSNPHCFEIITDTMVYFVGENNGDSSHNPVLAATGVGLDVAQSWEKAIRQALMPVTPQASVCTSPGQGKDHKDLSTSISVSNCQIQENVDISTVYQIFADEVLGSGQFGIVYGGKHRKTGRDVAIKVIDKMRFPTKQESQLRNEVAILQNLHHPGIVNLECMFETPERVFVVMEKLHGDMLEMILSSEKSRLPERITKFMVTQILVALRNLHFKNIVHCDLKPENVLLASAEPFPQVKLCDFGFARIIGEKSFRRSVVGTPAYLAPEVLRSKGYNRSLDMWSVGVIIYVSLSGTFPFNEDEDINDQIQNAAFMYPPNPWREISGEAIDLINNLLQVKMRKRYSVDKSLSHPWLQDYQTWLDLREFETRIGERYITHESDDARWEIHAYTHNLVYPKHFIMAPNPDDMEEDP

For assay [2], the target named is Tyrosine-protein kinase BTK (Homo sapiens, UniProt Q06187).
Chain of Tyrosine-protein kinase BTK (Q06187 whole entry): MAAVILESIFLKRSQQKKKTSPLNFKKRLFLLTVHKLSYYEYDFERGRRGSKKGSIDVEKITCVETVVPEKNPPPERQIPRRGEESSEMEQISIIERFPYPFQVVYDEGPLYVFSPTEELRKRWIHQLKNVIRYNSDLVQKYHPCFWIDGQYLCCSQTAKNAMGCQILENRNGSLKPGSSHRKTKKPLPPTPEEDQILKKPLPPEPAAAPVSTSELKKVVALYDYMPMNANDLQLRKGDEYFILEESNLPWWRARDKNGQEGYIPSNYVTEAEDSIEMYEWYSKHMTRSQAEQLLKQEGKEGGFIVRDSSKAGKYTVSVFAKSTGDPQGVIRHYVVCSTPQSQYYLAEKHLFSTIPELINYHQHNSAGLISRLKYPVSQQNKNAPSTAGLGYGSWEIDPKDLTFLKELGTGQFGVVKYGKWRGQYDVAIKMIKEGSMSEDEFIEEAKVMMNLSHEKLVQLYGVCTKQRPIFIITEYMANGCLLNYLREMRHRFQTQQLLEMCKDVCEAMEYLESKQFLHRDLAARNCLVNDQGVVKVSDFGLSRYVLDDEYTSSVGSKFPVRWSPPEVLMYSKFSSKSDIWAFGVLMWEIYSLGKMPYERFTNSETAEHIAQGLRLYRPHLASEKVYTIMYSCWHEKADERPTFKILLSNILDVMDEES
Assay [3] addresses T2, Serine/threonine-protein kinase Nek9 (Homo sapiens, UniProt Q8TD19).
T2 sequence (Q8TD19 whole entry): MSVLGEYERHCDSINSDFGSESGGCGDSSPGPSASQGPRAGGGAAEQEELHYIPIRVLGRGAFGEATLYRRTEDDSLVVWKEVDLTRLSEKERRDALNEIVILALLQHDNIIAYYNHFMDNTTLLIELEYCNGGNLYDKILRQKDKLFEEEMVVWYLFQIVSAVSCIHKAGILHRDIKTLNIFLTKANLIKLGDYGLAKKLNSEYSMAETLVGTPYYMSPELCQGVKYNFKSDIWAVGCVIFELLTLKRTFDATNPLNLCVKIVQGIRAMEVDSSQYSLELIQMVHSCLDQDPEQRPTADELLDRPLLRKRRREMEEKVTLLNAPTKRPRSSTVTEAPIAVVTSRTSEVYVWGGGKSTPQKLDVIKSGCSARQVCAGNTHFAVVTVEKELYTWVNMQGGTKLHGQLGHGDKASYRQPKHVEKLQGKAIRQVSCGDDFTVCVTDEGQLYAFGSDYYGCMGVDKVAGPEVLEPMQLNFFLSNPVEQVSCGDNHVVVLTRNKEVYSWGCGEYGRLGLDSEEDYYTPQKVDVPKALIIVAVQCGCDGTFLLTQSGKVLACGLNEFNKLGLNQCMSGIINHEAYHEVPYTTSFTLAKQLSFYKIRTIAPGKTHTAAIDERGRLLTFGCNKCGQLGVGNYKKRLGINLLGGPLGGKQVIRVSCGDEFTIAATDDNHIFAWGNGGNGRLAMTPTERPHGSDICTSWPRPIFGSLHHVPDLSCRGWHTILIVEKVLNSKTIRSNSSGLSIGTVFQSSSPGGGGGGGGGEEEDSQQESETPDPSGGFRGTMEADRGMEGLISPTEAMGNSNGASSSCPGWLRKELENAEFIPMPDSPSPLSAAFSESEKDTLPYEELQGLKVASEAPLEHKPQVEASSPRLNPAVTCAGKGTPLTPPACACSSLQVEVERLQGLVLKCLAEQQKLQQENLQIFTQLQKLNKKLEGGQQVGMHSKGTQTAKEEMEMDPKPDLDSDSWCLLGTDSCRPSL

Assay [4] concerns the target Serine/threonine-protein kinase MRCK gamma (Homo sapiens, UniProt Q6DT37).
Assay [5] deals with Casein kinase II subunit alpha' (Homo sapiens, UniProt P19784).
Chain of Casein kinase II subunit alpha' (P19784 whole entry): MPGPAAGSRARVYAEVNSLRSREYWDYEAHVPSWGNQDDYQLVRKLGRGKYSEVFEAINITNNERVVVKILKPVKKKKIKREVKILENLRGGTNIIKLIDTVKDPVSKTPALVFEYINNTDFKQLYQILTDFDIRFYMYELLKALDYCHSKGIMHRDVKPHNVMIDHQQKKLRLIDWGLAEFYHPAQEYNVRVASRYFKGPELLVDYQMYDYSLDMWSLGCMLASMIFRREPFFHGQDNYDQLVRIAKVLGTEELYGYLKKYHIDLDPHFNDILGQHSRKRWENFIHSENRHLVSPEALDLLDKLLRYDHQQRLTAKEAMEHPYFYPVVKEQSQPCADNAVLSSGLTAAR
In assay [6] the target is Actin-related protein 2 (Homo sapiens, UniProt P61160).
In assay [7] the target is Protein-tyrosine kinase 6 (Homo sapiens, UniProt Q13882).
Chain of Protein-tyrosine kinase 6 (Q13882 whole entry): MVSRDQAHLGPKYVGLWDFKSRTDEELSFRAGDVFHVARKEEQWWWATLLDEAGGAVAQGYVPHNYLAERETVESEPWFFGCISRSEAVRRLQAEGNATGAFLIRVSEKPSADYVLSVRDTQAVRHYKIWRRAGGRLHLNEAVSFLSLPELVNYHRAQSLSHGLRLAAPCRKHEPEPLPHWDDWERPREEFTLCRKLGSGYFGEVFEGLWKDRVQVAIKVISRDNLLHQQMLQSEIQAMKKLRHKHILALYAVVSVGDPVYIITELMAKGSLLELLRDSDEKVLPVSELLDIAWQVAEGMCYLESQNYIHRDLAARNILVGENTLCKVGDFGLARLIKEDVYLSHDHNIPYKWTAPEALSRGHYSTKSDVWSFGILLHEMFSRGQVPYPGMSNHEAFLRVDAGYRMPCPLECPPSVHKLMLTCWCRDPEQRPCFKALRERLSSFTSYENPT
The target in assay [8] is Calcium/calmodulin-dependent protein kinase kinase 2 (Homo sapiens, UniProt Q96RR4).
Chain of Calcium/calmodulin-dependent protein kinase kinase 2 (Q96RR4 whole entry): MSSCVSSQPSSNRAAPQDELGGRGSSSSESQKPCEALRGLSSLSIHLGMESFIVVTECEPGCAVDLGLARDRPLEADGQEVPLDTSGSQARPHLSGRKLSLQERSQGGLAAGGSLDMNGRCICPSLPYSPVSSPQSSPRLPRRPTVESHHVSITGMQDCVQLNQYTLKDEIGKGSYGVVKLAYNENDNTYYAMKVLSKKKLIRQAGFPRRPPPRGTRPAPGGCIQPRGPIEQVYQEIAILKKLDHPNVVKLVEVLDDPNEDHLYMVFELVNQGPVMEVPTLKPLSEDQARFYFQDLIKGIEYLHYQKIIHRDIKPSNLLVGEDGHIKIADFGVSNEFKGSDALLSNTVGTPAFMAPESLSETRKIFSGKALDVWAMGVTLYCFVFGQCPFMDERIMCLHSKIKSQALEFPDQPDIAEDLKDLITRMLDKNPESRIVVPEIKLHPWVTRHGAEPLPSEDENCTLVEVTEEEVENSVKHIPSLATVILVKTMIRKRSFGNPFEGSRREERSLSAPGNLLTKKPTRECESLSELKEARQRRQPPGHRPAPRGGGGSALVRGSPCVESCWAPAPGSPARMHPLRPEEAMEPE
In assay [9] the target is Serine/threonine-protein kinase N1 (Homo sapiens, UniProt Q16512).
Chain of Serine/threonine-protein kinase N1 (Q16512 whole entry): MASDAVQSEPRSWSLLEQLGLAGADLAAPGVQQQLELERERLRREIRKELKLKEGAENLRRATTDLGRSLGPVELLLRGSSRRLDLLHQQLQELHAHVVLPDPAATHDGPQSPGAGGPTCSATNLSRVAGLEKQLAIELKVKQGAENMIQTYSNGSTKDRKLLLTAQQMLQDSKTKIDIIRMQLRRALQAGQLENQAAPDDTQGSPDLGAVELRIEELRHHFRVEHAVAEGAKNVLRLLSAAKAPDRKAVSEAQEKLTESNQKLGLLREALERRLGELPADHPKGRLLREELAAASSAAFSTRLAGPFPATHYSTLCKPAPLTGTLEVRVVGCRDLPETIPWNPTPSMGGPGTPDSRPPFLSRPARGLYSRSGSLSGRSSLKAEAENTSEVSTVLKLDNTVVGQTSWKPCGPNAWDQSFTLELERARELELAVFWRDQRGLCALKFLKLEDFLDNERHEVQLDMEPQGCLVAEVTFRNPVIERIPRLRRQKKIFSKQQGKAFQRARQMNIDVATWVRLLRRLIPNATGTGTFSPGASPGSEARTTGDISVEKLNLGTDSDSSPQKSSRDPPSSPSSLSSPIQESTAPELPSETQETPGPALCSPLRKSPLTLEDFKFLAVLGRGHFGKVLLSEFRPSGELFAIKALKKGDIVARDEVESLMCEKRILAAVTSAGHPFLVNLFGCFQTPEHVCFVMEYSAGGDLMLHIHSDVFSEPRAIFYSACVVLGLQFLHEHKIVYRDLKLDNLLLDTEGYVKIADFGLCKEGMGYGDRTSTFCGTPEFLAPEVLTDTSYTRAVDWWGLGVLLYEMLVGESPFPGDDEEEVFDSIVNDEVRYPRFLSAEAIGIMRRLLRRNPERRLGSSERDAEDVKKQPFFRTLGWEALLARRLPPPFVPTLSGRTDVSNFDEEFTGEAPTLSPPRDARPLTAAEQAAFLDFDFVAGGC
For assay [10], the target named is Tyrosine-protein kinase Lyn (Homo sapiens, UniProt P07948).
Chain of Tyrosine-protein kinase Lyn (P07948 whole entry): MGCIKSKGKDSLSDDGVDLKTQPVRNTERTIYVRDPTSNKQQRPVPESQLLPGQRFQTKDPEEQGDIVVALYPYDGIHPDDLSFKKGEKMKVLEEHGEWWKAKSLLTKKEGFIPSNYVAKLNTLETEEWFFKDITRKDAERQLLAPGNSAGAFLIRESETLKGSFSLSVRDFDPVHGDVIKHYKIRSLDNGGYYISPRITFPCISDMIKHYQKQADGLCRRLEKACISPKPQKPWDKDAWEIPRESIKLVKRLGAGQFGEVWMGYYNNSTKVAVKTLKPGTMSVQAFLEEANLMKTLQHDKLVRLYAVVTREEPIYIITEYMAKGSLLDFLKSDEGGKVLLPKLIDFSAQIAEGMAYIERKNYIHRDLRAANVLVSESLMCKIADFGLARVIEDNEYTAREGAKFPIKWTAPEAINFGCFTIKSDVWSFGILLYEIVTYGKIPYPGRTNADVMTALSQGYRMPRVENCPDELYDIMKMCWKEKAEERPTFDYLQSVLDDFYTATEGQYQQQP
Assay [11] has as its target T3, Tyrosine--tRNA ligase, cytoplasmic (Homo sapiens, UniProt P54577).
T3 sequence (P54577 whole entry): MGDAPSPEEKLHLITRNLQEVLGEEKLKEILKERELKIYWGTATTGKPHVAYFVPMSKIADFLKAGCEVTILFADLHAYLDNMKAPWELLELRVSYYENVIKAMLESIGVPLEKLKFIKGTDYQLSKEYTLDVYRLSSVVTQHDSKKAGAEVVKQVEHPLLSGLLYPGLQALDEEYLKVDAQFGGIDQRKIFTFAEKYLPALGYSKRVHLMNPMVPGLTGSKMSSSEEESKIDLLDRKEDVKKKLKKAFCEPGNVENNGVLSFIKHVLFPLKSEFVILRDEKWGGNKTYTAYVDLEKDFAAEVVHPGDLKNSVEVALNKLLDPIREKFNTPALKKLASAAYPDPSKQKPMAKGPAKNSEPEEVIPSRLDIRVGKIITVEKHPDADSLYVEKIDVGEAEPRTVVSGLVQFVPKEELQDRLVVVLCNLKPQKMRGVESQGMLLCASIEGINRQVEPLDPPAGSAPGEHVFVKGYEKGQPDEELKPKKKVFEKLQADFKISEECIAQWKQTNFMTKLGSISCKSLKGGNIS

The target of assay [12] is Myosin light chain kinase, smooth muscle (Homo sapiens, UniProt Q15746).
Assay [13] addresses Serine/threonine-protein kinase pim-1 (Homo sapiens, UniProt P11309).
Also: in the data inactive means no Kd found up to 30 µM.

Chain of Serine/threonine-protein kinase MRCK gamma (Q6DT37 whole entry): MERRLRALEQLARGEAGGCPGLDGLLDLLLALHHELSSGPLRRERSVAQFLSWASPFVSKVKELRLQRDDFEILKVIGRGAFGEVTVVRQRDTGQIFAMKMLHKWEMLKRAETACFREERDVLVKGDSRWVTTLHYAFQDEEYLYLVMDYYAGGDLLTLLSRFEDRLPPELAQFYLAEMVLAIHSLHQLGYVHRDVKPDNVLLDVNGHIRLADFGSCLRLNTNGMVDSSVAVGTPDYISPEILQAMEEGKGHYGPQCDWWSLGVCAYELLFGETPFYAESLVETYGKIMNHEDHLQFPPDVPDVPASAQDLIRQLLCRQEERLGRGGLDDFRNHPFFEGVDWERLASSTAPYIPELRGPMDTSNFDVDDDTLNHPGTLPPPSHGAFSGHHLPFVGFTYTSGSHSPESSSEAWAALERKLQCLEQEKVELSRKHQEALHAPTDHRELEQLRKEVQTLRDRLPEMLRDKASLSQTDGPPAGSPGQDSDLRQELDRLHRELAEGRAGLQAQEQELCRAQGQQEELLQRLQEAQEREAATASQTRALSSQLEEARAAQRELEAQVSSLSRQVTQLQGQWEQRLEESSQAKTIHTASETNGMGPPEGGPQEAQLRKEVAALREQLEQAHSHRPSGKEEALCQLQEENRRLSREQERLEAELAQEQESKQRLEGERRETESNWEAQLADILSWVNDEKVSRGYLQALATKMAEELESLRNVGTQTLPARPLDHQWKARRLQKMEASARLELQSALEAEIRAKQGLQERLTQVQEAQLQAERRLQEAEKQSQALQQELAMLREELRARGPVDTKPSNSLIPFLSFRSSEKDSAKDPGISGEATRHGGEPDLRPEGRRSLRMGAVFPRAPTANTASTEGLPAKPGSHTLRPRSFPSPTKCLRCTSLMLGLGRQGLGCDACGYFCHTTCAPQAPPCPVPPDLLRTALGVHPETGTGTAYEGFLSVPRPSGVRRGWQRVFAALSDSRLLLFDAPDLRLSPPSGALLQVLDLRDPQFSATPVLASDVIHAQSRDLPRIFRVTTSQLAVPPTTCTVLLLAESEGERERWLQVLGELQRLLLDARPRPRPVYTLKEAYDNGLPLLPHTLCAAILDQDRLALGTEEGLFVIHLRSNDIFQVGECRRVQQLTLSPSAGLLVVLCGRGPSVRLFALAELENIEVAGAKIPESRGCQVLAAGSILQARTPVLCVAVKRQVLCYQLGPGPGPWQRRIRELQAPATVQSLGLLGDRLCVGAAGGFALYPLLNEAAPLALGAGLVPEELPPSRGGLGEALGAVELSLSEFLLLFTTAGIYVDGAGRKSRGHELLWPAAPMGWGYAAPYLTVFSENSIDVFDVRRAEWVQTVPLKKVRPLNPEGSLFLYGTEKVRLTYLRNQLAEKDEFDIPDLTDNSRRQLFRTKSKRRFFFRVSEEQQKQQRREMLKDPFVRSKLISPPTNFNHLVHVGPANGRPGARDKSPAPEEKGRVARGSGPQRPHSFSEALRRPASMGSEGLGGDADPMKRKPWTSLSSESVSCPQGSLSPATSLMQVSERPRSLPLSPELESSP

A word on the Kd: it is the equilibrium constant for the complex coming apart. In the case of `COc1cc2ncnc(Nc3ccc(O)cc3)c2cc1OC` [WHI-P131], the Kd in [1], in assay [2], in assay [3], in [4], in assay [5] and in [6] was > 30 µM (inactive) in each case. Besides, the Kd in assay [7], in assay [8], in [9], in [10], in [11] and in assay [12] was > 30 µM (inactive) in each case. The Kd in assay [13] is > 30 µM (inactive).

For `O=C(Nc1ccc(OC(F)(F)F)cc1)c1sccc1NCc1ccnc2ccccc12` [OSI-930], the Kd in assay [1], in assay [2], in assay [3], in [4], in assay [5] and in assay [6] was > 30 µM (inactive) each time. The Kd in assay [7], in assay [8], in assay [9], in assay [10], in assay [11] and in [12] was > 30 µM (inactive) each time. Further, the Kd in assay [13] was > 30 µM (inactive).

Regarding `O=S(=O)(c1cccc2c(O)nccc12)N1CCCNCC1` [HYDROXYFASUDIL], the Kd in assay [1], in assay [2], in assay [3], in assay [4], in [5] and in [6] was > 30 µM (inactive) throughout. Also, the Kd in assay [7] was > 30 µM (inactive); in [8] it was > 30 µM (inactive); in assay [9], 2.92 µM (active); in assay [10], > 30 µM (inactive); in [11] it was > 30 µM (inactive); in [12] it was > 30 µM (inactive). Besides, the Kd in assay [13] was > 30 µM (inactive).

For the compound `CN1CCN(c2nc(C3=C(c4c[nH]c5ccccc45)C(=O)NC3=O)c3ccccc3n2)CC1` [SOTRASTAURIN], the Kd in [1], in assay [2], in [3], in assay [4], in assay [5] and in assay [6] was > 30 µM (inactive) in each case. Besides, the Kd in assay [7] was > 30 µM (inactive); in assay [8], > 30 µM (inactive); in assay [9], 2.95 µM; in [10], > 30 µM (inactive); in assay [11] it was > 30 µM (inactive); in [12], > 30 µM (inactive). The same compound returned an equilibrium dissociation constant (Kd) in assay [13] of 8.84 µM.

In the case of `C[C@@H]1COC(Nc2ccc3ncnc(Nc4ccc(OCc5nccs5)c(Cl)c4)c3c2)=N1` [VARLITINIB], the Kd in assay [1], in assay [2], in assay [3], in [4], in assay [5] and in [6] was > 30 µM (inactive) throughout. Moreover, the Kd in [7], in assay [8], in assay [9], in [10], in assay [11] and in assay [12] was > 30 µM (inactive) in each case. Besides, the Kd in [13] is > 30 µM (inactive).

For `C=CC(=O)Nc1cc(Nc2nccc(-c3cn(C)c4ccccc34)n2)c(OC)cc1N(C)CCN(C)C` [OSIMERTINIB], the Kd was > 30 µM (inactive) in assay [1]; 0.525 µM (active) in assay [2]; > 30 µM (inactive) in assay [3]; > 30 µM (inactive) in assay [4]; > 30 µM (inactive) in assay [5]; > 30 µM (inactive) in [6]. Moreover, the Kd in assay [7], in assay [8], in assay [9], in assay [10], in assay [11] and in [12] was > 30 µM (inactive) each time. The Kd in [13] is > 30 µM (inactive).

As for `COCCN1CCN(Cc2ccc(-c3n[nH]c4c3C(=O)c3c(NC(=O)NN5CCOCC5)cccc3-4)cc2)CC1` [RGB-286638], the Kd in assay [1] was 0.297 µM (active); in assay [2], > 30 µM (inactive); in assay [3] it was > 30 µM (inactive); in assay [4], > 30 µM (inactive); in assay [5] it was 0.008 µM (active); in [6] it was > 30 µM (inactive). The Kd in [7], in [8], in assay [9], in assay [10], in [11] and in assay [12] was > 30 µM (inactive) each time. Moreover, the Kd in assay [13] is > 30 µM (inactive).

With `Cn1c(=O)c(F)c(Nc2ccc(I)cc2F)c2c(=O)n(C[C@@H](O)CO)cnc21` [TAK-733], the Kd in [1], in assay [2], in assay [3], in assay [4], in assay [5] and in assay [6] was > 30 µM (inactive) in each case. The Kd in [7], in [8], in assay [9], in [10], in [11] and in assay [12] was > 30 µM (inactive) throughout. The Kd in assay [13] was > 30 µM (inactive).
